Results published in patent US8563036B2, “Pharmaceutical compositions comprising Brivaracetam” (UCB Pharma, S.A., priority 2009, dated 2013).
Values after ≈ are worked out from the molar mass of the structure shown.

What was measured:
rat hippocampal slices [1] = experiment: Epileptiform responses in hippocampal slices (field potentials in CA3 area); assay type: cell-based, Sprague-Dawley rats; design: effect on rate of spontaneous field bursting: dose or concentration left out as unconfirmed; conditions: for effect on rate of spontaneous field bursting: HKLCF; for effect on epileptiform responses (evoked PS1 amplitude, repetitive PSs): HKLCF perfusion (K+ 7.5 mM; Ca2+ 0.5 mM), fimbrial stimulation
Protocol: The effect of brivaracetam on epileptiform responses induced by high-K+/low-Ca2+ concentrations or by bicuculline was examined in transverse hippocampal slices prepared from Sprague-Dawley rats according to previously reported standard procedures. The epileptiform responses were induced by passing from a normal perfusion of artificial cerebrospinal fluid (ACSF) (K+3 mM; Ca2+2.4 mM) to either high-K+/low-Ca2+ fluid (HKLCF) (K+7.5 mM; Ca2+0.5 mM) or to […] bicuculline methiodide (BMI)-containing ACSF.
Extracellular field potentials (FPs) were recorded in the CA3 area of the slices with 2 M NaCl-filled glass microelectrodes. The evoked FPs were recorded at 10-min intervals in response to fimbrial stimulation with constant current rectangular pulses that elicit a single population spike (PS) of 50-75% of the maximal amplitude when the slice is in ACSF. In the HKLCF model, 2 min of spontaneous activity were also recorded, in the middle of each 10-min interval between the recordings of evoked responses.
Either brivaracetam or levetiracetam was added to the bathing fluid of the slices 20 min before shifting from ACSF to either HKLCF or […] BMI-containing ACSF, and was kept in the perfusion fluid throughout the experiment.

[2] = system: fully amygdala-kindled rats; experiment: Fully amygdala-kindled rats; assay type: in vivo; conditions: for dose significantly reducing after-discharge duration: highest dose tested
[3] = system: Genetically sound-sensitive male mice; experiment: Audiogenic seizures in mice; assay type: in vivo; conditions: audiogenic seizure-susceptible mice, i.p.
Source text: Audiogenic seizures in mice: Genetically sound-sensitive male mice (16-28 g; n=10 per group), responding with wild running, clonic and tonic convulsions to an acoustic stimulation, were used. Audiogenic seizures were induced by an acoustic stimulus (90 dB, 10-20 kHz) applied for 30 s.

rat hippocampal slices [4] = conditions: background statement; cited from earlier work
mice [5] = experiment: Chemically induced seizures in mice (pentylenetetrazol); assay type: in vivo; conditions: i.p. 30 min before seizure induction; higher ED50 values than audiogenic model
Protocol: The dose was selected based on dose-effect curves in saline-treated animals as the convulsive dose inducing clonic convulsions of all four extremities in 97% of the animals. Immediately after administration of the chemoconvulsant, the mice were placed individually in small plastic cages (25 13 8 cm) and observed for the presence of clonic convulsions in all four extremities, for 60 min. The occurrence of tonic convulsions (hindlimb extension) and mortality was also recorded during this interval.

mice [6] = experiment: Maximal electroshock in mice; assay type: in vivo; conditions: i.p. 30 min before seizure induction; higher ED50 values than audiogenic model
GAERS rats = experiment: Spontaneous SWDs in GAERS rats; assay type: in vivo
mice [7] = experiment: Corneal kindling of mice; assay type: in vivo
[8] = Water solubility of the active ingredient

For `CC[C@@H](C(N)=O)N1CCCC1=O` [Levetiracetam], the “effect on rate of spontaneous field bursting” value (rat hippocampal slices [1]) was “not”, the “effect on epileptiform responses (evoked PS1 amplitude, repetitive PSs)” value (rat hippocampal slices [1]) was “reduced these epileptiform responses” and the “dose from which significant suppression in motor-seizure severity was induced” value [2] was 170 mg/kg. For the same compound, the “dose significantly reducing after-discharge duration” value [2] was greater than 1700 mg/kg, the “protection against clonic convulsions” value [3] was “protected against the expression of clonic convulsions” and the “effect on epileptiform responses induced by high-K+/low-Ca2+ and by bicuculline” value (rat hippocampal slices [4]) was “reduces epileptiform responses”.
With `CCC[C@@H]1CC(=O)N([C@@H](CC)C(N)=O)C1` [Brivaracetam, (2S)-2-[(4R)-2-oxo-4-propyl-pyrrolidin-1-yl]butanamide] the BCS class (BCS classification) was “BCS I”, the “effect on rate of spontaneous field bursting” value (rat hippocampal slices [1]) was “reduced the rate of this spontaneous bursting” and the “effect on epileptiform responses (evoked PS1 amplitude, repetitive PSs)” value (rat hippocampal slices [1]) was “reduced these epileptiform responses”. For the same compound, the “dose from which significant suppression in motor-seizure severity was induced” value [2] was 21.2 mg/kg, the “dose significantly reducing after-discharge duration” value [2] was 212.3 mg/kg and the “protection against clonic convulsions” value [3] was “protected against the expression of clonic convulsions”. The “protection against clonic convulsions induced by pentylenetetrazol” value (mice [5]) was “protected against clonic convulsions”, the “protection against tonic hindlimb extension induced by maximal electroshock” value (mice [6]) was “protected” and the “dose from which spontaneous SWDs were significantly suppressed” value (GAERS rats) was 2.1 mg/kg. The “dose giving complete inhibition of spontaneous SWDs” value (GAERS rats; highest dose tested) was 67.9 mg/kg, the “incidence of generalized motor seizures after termination of treatment” value (mice [7]; continued corneal stimulations, group previously treated with the highest dose) was “persistent reduction in the incidence of generalized motor seizures” and the “incidence of generalized motor seizures” value (mice [7]; pretreatment during corneal kindling) was “significant reduction in the incidence of generalized motor seizures”. It also gave a solubility [8] of roughly 700 mg/mL (≈ 3300 mM).
